Data taken from patent US20070117839A1, “Two cyclic cinnamide compound” (Eisai R&D Management Co., Ltd., priority 2005, published 2007).

Tested on: Aβ 42 Production
Experiment: Quantification of Aβ peptide in culture of neurons from rat fetus brain (Aβ ELISA)
Type: cell-based
Conditions: Neuron, 72 h; rat primary neuronal culture (embryonic day 18 Wistar rat cerebral cortex), cultured three days after addition of the compound, Aβx-42 ELISA of the medium; read-out: Activity for reducing Aβ 42 Production IC50
Experimental: Quantification of Aβ Peptide in Culture of Neurons from Rat Fetus Brain
(1) Rat Primary Neuronal Culture
Primary neuronal cultures were prepared from the cerebral cortex of embryonic day 18 Wistar rats (Charles River Japan, Yokohama, Japan). Specifically, the embryos were aseptically removed from pregnant rats under ether anesthesia. The brain was isolated from the embryo and immersed in an ice-cold L-15 medium (Invitrogen Corp. Cat #11415-064, Carlsbad, Calif., USA, or SIGMA L1518, for example). The cerebral cortex was collected from the isolated brain under a stereoscopic microscope. The cerebral cortex fragments collected were enzymatically treated in an enzyme solution containing 0.25% trypsin (Invitrogen Corp. Cat #15050-065, Carlsbad, Calif., USA) and 0.01% DNase (Sigma D5025, St. Louis, Mo., USA) at 37° C. for 30 minutes to disperse the cells. Here, the enzymatic reaction was stopped by adding inactivated horse serum to the solution. The enzymatically treated solution was centrifuged at 1,500 rpm for five minutes to remove the supernatant. 5 to 10 mL of a medium was added to the resulting cell mass. Neurobasal medium (Invitrogen Corp. Cat #21103-049, Carlsbad, Calif., USA) supplemented with 2% B27 supplement (Invitrogen Corp. Cat #17504-044, Carlsbad, Calif., USA), 25 μM 2-mercaptoethanol (2-ME, WAKO Cat #139-06861, Osaka, Japan), 0.5 mM L-glutamine (Invitrogen Corp. Cat #25030-081, Carlsbad, Calif., USA), and Antibiotics-Antimycotics (Invitrogen Corp. Cat #15240-062, Carlsbad, Calif., USA) was used as the medium (Neurobasal/B27/2-ME). However, the above Neurobasal medium not supplemented with 2-ME (Neurobasal/B27) was used for the assay. The cells were redispersed by mild pipetting of the cell mass to which the medium was added. The cell dispersion was filtered through a 40-μm nylon mesh (Cell Strainer, Cat #35-2340, Becton Dickinson Labware, Franklin Lakes, N.J., USA) to remove the remaining cell mass, and thus a neuronal cell suspension was obtained. The neuronal cell suspension was diluted with the medium and then plated in a volume of 100 μl/well at an initial cell density of 5×10^5 cells/cm^2 in a 96-well polystyrene culture plate pre-coated with poly-L or D-lysine (Falcon Cat #35-3075, Becton Dickinson Labware, Franklin Lakes, N.J., USA coated with poly-L-lysine using the method shown below, or BIOCOAT™ cell environments Poly-D-lysine cell ware 96-well plate, Cat #35-6461, Becton Dickinson Labware, Franklin Lakes, N.J., USA). Poly-L-lysine coating was carried out as follows. 100 μg/ml of a poly-L-lysine (SIGMA P2636, St. Louis, Mo., USA) solution was aseptically prepared with a 0.15 M borate buffer (pH 8.5). 100 μl/well of the solution was added to the 96-well polystyrene culture plate and incubated at room temperature for one or more hours or at 4° C. overnight or longer. The coated 96-well polystyrene culture plate was washed with sterile water four or more times, and then dried or rinsed with, for example, sterile PBS or medium, and used for cell plating. The plated cells were cultured in the culture plate at 37° C. in 5% CO2-95% air for one day. Then, the total amount of the medium was replaced with a fresh Neurobasal/B27/2-ME medium, and then the cells were cultured for further three days.
The drug was added to the culture plate on Day 4 of culture as follows. The total amount of the medium was removed from the wells, and 180 μl/well of Neurobasal medium not containing 2-ME and containing 2% B-27 (Neurobasal/B27) was added thereto. A solution of the test compound in dimethyl sulfoxide (hereinafter abbreviated as DMSO) was diluted with Neurobasal/B27 at 10-fold of the final concentration. 20 μl/well of the dilution was added to and sufficiently mixed with the medium. The final DMSO concentration was 1% or less. Only DMSO was added to the control group.
The cells were cultured for three days after addition of the compound, and the total amount of the medium was collected. […]

SMILES	IC50
COc1cc(/C=C2\CC[C@H]3CC[C@@H](c4cc(F)c(F)c(F)c4)N3C2=O)ccc1-n1cnc(C)c1 [Example 3, (E)-(3S)-(3,4,5-trifluorophenyl)-6-[3-methoxy-4-(4-methyl-1H-imidazol-1-yl)benzylidene]-(9S)-hexahydroindolizin-5-one]	0.063 µM
COc1cc(/C=C2\CC[C@H]3CC[C@@H](c4ccc(F)c(F)c4)N3C2=O)ccc1-n1cnc(C)c1 [Example 6, (E)-(3S)-(3,4-difluorophenyl)-6-[3-methoxy-4-(4-methyl-1H-imidazol-1-yl)benzylidene]-(9S)-hexahydroindolizin-5-one]	0.12 µM
COc1cc(/C=C2\CC[C@H]3CCC[C@@H](c4ccc(F)cc4)N3C2=O)ccc1-n1cnc(C)c1 [Example 8, (E)-(6S,9aR)-6-(4-fluorophenyl)-3-[3-methoxy-4-(4-methyl-1H-imidazol-1-yl)benzylidene]octahydroquinolizin-4-one]	0.073 µM
COc1cc(/C=C2\CC[C@@H]3C[C@H](O)C[C@@H](c4ccc(F)cc4)N3C2=O)ccc1-n1cnc(C)c1 [Example 11, (E)-(6S,8S,9aR)-6-(4-fluorophenyl)-8-hydroxy-3-[3-methoxy-4-(4-methyl-1H-imidazol-1-yl)benzylidene]octahydroquinolizin-4-one]	0.097 µM
COc1cc(/C=C2\CC[C@@H]3CCC[C@@H](c4cc(F)c(F)c(F)c4)N3C2=O)ccc1-n1cnc(C)c1 [Example 13, (E)-(6S,9aS)-6-(3,4,5-trifluorophenyl)-3-[3-methoxy-4-(4-methyl-1H-imidazol-1-yl)benzylidene]octahydroquinolizin-4-one]	0.091 µM
COc1cc(/C=C2\CC[C@@H]3C[C@H](O)C[C@@H](c4cc(F)c(F)c(F)c4)N3C2=O)ccc1-n1cnc(C)c1 [Example 15, (E)-(6S,8S,9aR)-6-(3,4,5-trifluorophenyl)-8-hydroxy-3-[3-methoxy-4-(4-methyl-1H-imidazol-1-yl)benzylidene]octahydroquinolizin-4-one]	0.08 µM
COc1cc(/C=C2\CC[C@@H]3C[C@@H](O)C[C@@H](c4cc(F)c(F)c(F)c4)N3C2=O)ccc1-n1cnc(C)c1 [Example 17, (E)-(6S,8R,9aR)-6-(3,4,5-trifluorophenyl)-8-hydroxy-3-[3-methoxy-4-(4-methyl-1H-imidazol-1-yl)benzylidene]octahydroquinolizin-4-one]	0.068 µM
COc1cc(/C=C2\CC[C@@H]3CCC[C@@H](c4ccc(F)cc4)N3C2=O)ccc1-n1cnc(C)c1 [Example 19, (E)-(6S,9aS)-6-(4-fluorophenyl)-3-[3-methoxy-4-(4-methyl-1H-imidazol-1-yl)benzylidene]octahydroquinolizin-4-one]	0.129 µM
COc1ccc([C@@H]2CCC[C@@H]3CC/C(=C\c4ccc(-n5cnc(C)c5)c(OC)c4)C(=O)N32)cc1 [Example 30, (E)-(6S,9aR)-3-[3-methoxy-4-(4-methyl-1H-imidazol-1-yl)benzylidene]-6-(4-methoxyphenyl)octahydroquinolizin-4-one]	0.109 µM
COc1cc(/C=C2\CC[C@H]3CCC[C@@H](c4cccc(F)c4)N3C2=O)ccc1-n1cnc(C)c1 [Example 41, (E)-(6S,9aR)-6-(3-fluorophenyl)-3-[3-methoxy-4-(4-methyl-1H-imidazol-1-yl)benzylidene]octahydroquinolizin-4-one]	0.047 µM
COc1cc(/C=C2\CC[C@H]3CCC[C@@H](c4ccccc4F)N3C2=O)ccc1-n1cnc(C)c1 [Example 43, (E)-(6S,9aR)-6-(2-fluorophenyl)-3-[3-methoxy-4-(4-methyl-1H-imidazol-1-yl)benzylidene]octahydroquinolizin-4-one]	0.066 µM
COc1cc(/C=C2\CC[C@@H]3CCC[C@H](c4ccccc4F)N3C2=O)ccc1-n1cnc(C)c1 [Example 44, (E)-(6R,9aS)-6-(2-fluorophenyl)-3-[3-methoxy-4-(4-methyl-1H-imidazol-1-yl)benzylidene]octahydroquinolizin-4-one]	0.094 µM
COc1cc(/C=C2\CC[C@@H]3C[C@@](C)(O)C[C@@H](c4ccc(F)cc4)N3C2=O)ccc1-n1cnc(C)c1 [Example 45, (E)-(6S,8R,9aR)-6-(4-fluorophenyl)-8-hydroxy-3-[3-methoxy-4-(4-methyl-1H-imidazol-1-yl)benzylidene]-8-methyloctahydroquinolizin-4-one]	0.16 µM
COc1cc(/C=C2\CC[C@@H]3CC(C)=C[C@@H](c4ccc(F)cc4)N3C2=O)ccc1-n1cnc(C)c1 [Example 49, (E)-(6S,9aR)-6-(4-fluorophenyl)-3-[3-methoxy-4-(4-methyl-1H-imidazol-1-yl)benzylidene]-8-methyl-1,2,3,6,9,9a-hexahydroquinolizin-4-one]	0.21 µM
COc1cc(/C=C2\C[C@H]3CC[C@@H](c4ccc(F)c(F)c4)N3C2=O)ccc1-n1cnc(C)c1 [Example 54, (E)-(5S,7aR)-5-(3,4-difluorophenyl)-2-[3-methoxy-4-(4-methyl-1H-imidazol-1-yl)benzylidene]hexahydropyrrolidin-3-one]	0.254 µM
COc1cc(/C=C2\CC[C@H]3CC[C@@H](c4ccc(Cl)cc4)N3C2=O)ccc1-n1cnc(C)c1 [Example 56, (E)-(3S,8aS)-3-(4-chlorophenyl)-6-[3-methoxy-4-(4-methyl-1H-imidazol-1-yl)benzylidene]hexahydroindolizin-5-one]	0.055 µM
COc1cc(/C=C2\CC[C@H]3CC[C@@H](c4cc(F)c(F)cc4F)N3C2=O)ccc1-n1cnc(C)c1 [Example 57, (E)-(3S,8aS)-3-(2,4,5-trifluorophenyl)-6-[3-methoxy-4-(4-methyl-1H-imidazol-1-yl)benzylidene]hexahydroindolizin-5-one]	0.062 µM
COc1cc(/C=C2\CC[C@H]3CC[C@@H](c4ccc(F)c(F)c4F)N3C2=O)ccc1-n1cnc(C)c1 [Example 58, (E)-(3S,8aS)-3-(2,3,4-trifluorophenyl)-6-[3-methoxy-4-(4-methyl-1H-imidazol-1-yl)benzylidene]hexahydroindolizin-5-one]	0.073 µM
COc1cc(/C=C2\CC[C@H]3CC[C@@H](c4cc(F)cc(F)c4)N3C2=O)ccc1-n1cnc(C)c1 [Example 64, (E)-(3S,8aS)-3-(3,5-difluorophenyl)-6-[3-methoxy-4-(4-methyl-1H-imidazol-1-yl)benzylidene]hexahydroindolizin-5-one]	0.067 µM
COc1cc(/C=C2\CC[C@@H]3CCC[C@@H](c4ccc(F)c(F)c4)N3C2=O)ccc1-n1cnc(C)c1 [Example 65, (E)-(6S,9aS)-6-(3,4-difluorophenyl)-3-[3-methoxy-4-(4-methyl-1H-imidazol-1-yl)benzylidene]octahydroquinolizin-4-one]	0.068 µM
COc1cc(/C=C2\CC[C@H]3COC[C@@H](c4cc(F)c(F)c(F)c4)N3C2=O)ccc1-n1cnc(C)c1 [Example 83, (E)-(4R,9aS)-7-[3-methoxy-4-(4-methyl-1H-imidazol-1-yl)benzylidene]-4-(3,4,5-trifluorophenyl)hexahydropyrido[2,1-c][1,4]oxazin-6-one]	0.037 µM
COc1cc(/C=C2\CC[C@H]3CC[C@@H](c4c(F)cc(F)cc4F)N3C2=O)ccc1-n1cnc(C)c1 [Example 89, (3S,8aS)-6-{1-[3-methoxy-4-(4-methyl-1H-imidazol-1-yl)phenyl]-(E)-methylidene}-3-(2,4,6-trifluorophenyl)hexahydroindolizin-5-one]	0.088 µM
